# Test results taken from patent US20050208084A1, “Use of alkylamidomandelates as flavourings” (priority 2002, published 2005).
# How the values were obtained:
# [1] = Tasting the mandelic acid alkylamides (sensory panel, ethanolic solution diluted in 11% sugar solution, swallowed); type: in vivo; details: for estimation of pungency: scale of 1 (very weak) to 9 (very strong), 6-8 testers
# Description: The substance to be tasted is dissolved in ethanol and the ethanolic solution is then diluted with an 11% sugar solution (final concentration: c). For tasting, in each case approximately 5 ml of the sugar solution are swallowed. If the threshold value of the substance is known, a value just above the threshold value is chosen for the tasting. A group of 6-8 testers tasted the solutions.
# Where possible, the impression of pungency was estimated on a scale of 1 (very weak) to 9 (very strong).
# [2] = cited from earlier work
compound,measurement,setting,value
"CCCCCCCCNC(=O)C(O)c1ccc(O)c(O)c1 (centres unmarked) [no. 4, 2-(3,4-Dihydroxyphenyl)-2-hydroxy-N-octylacetamide]",taste profile,[1]; 10 ppm in 11% sugar solution,"pungency develops slowly; stinging, rough, slightly spicy"
same,estimation of pungency,[1]; 10 ppm in 11% sugar solution,5
"COc1cc(CNC(=O)CCCC/C=C/C(C)C)ccc1O [Capsaicin, N-(4-hydroxy-3-methoxybenzyl)-8-methyl-(6E)-nonenoamide]",damage occurring in the case of frequent use and overdose,[2]; frequent use and overdose,"chronic gastritis, kidney and liver damage"
same,LD50,[2]; mouse oral,47 mg
"CCCCCCCCCNC(=O)C(O)c1ccc(O)c(OC)c1 (centres unmarked) [no. 10, 2-(4-Hydroxy-3-methoxyphenyl)-2-hydroxy-N-nonylacetamide]",taste profile,[1]; 10 ppm in 11% sugar solution,immediate onset of pungency; similar to capsaicin
same,estimation of pungency,[1]; 10 ppm in 11% sugar solution,8
"COc1cc(CNC(=O)CCCCCCC(C)C)ccc1O [Dihydrocapsaicin, reference compound]",taste profile,[1]; 100 ppb in 11% sugar solution,"slightly delayed onset of effect in pharyngeal cavity, burning, aggressive, no development of heat"
"CCCCCCCNC(=O)C(O)c1ccc(O)c(OC)c1 (centres unmarked) [no. 8, 2-(4-Hydroxy-3-methoxyphenyl)-2-hydroxy-N-heptylacetamide]",taste profile,[1]; 10 ppm in 11% sugar solution,"pungency develops; burning, slightly over-ripe"
same,estimation of pungency,[1]; 10 ppm in 11% sugar solution,7
"CCCCCCCCC(=O)NCc1ccc(O)c(OC)c1 [N-(3-methoxy-4-hydroxybenzyl)nonanoamide, reference compound]",taste profile,[1]; 200 ppb in 11% sugar solution,"slightly delayed onset of effect in pharyngeal cavity, little pungency on the tongue, stinging, no development of heat"
"CCCCCCCCNC(=O)C(O)c1ccc(OC)c(O)c1 (centres unmarked) [no. 6, 2-(3-Hydroxy-4-methoxyphenyl)-2-hydroxy-N-octylacetamide]",taste profile,[1]; 1 ppm in 11% sugar solution,"slightly pungent, particularly on the tongue, slight tingling, rapidly disappears again"
same,estimation of pungency,[1]; 1 ppm in 11% sugar solution,3
"CCCCCCCCNC(=O)C(O)c1ccc(O)c(OC)c1 (centres unmarked) [no. 9, 2-(4-Hydroxy-3-methoxyphenyl)-2-hydroxy-N-octylacetamide]",taste profile,[1]; 1 ppm in 11% sugar solution,"no pungency initially, develops suddenly, very intense and long-lasting, ginger pungency"
same,estimation of pungency,[1]; 1 ppm in 11% sugar solution,8
